Measurements from patent US8247380B2, “Alpha 1-acid glycoprotein, alpha 2-HS glycoprotein, alpha 1-antitrypsin, and fragments thereof induce apoptosis in cancer cell lines” (Ambryx Biotechnology, D.C., priority 1997, dated 2012).
Entries after “also recorded” stand apart in the source; their conditions may differ.

Experiments:
[1] = tested on: tumor cell line P388D1 (leukemia); experiment: Effect of fetal fetuin on leukemia-bearing mice; assay type: in vivo, DBA/2 female mice
Experimental: Forty DBA/2 female mice (17-20 grams; Simonsen Laboratories, Inc., Gilroy, Calif.) kept on a standard diet and water ad libitum were inoculated with tumor cell line P388D1 (ATCC cell line number CCL46). The mice were randomly segregated into groups of ten (10). Zinc-charged fetal fetuin (10 mg/ml) were intraperitoneally injected into group I at 0.002 ml/mouse, group II at 0.02 ml/mouse and group III at 0.2 ml/mouse. Group IV was the control group, which was injected with 0.5 ml of saline solution. The injections were continued for 10 days. Mortalities were recorded for 60 days. The results were expressed as the percentage increase in life span (ILS): […]

[2] = tested on: Hs578 Bst (human normal breast); experiment: Apoptosis assay, Hs578 Bst cells; assay type: cell-based; details: peptide fragment: 6 hours
[3] = tested on: p3HR-1 (human Burkitt lymphoma); experiment: Apoptosis assay, p3HR-1 cells; assay type: cell-based; details: peptide fragment: 6 hours
[4] = tested on: Calu-1 (human lung carcinoma); experiment: Apoptosis assay, Calu-1 cells; assay type: cell-based; details: for apoptotic activity, panel of cell lines (in words): peptide fragment: 6 hours
HL-60 (leukemia) cells = experiment: Cell death (apoptosis) assay, HL-60 cells; assay type: cell-based, human; details: for apoptotic activity, panel of cell lines (in words): peptide fragment: 6 hours
Experimental: Fetuin purified from fetal bovine serum by the procedure described above was dissolved in phosphate buffer saline (PBS). The free Zinc Acetate and Barium Acetate were removed by repetitive concentration. Fetuin was tested in LNCaP and HL-60 cells. […] Fetuin (in 10 μl PBS) at concentration of 100 ng/ml was added 3-4 hours after the cells were seeded.

cancer cell lines = experiment: Apoptosis assay, cancer cells (cell line not given); assay type: cell-based; details: cancer cells
[5] = tested on: CCD-18 Co (human normal colon fibroblast); experiment: Apoptosis assay, CCD-18 Co cells; assay type: cell-based; details: for apoptotic activity, panel of cell lines (in words): peptide fragment: 6 hours
From the text: Zinc charged alpha 1-acid glycoprotein has no effect on CCD 18Co cells (human normal colon fibroblast).

[6] = tested on: CCD25 Lu (human normal lung); experiment: Apoptosis assay, CCD25 Lu cells; assay type: cell-based; details: peptide fragment: 6 hours
[7] = tested on: HT-29 (human colon adenocarcinoma); experiment: Apoptosis assay, HT-29 cells; details: for apoptotic activity, panel of cell lines (in words): peptide fragment: 6 hours
Experimental: Prostate cancer cell line LNCAP was routinely used for the isolation of Apogen P-1 and Apogen P-2, whereas leukemia cell line HL-60 was used for the isolation of Apogen L. The methods of assays were as follows: LNCAP or HL-60 (1,000 cells) was seeded in 10 microliters RPMI containing 15% or 20% Fetal bovine serum, penicillin and streptomycin at 37 degrees, 5% CO2 in Microtray plates (25 μl wells, Robbins Scientific Corp.). The tested sample (10 μl) was added 3-4 hours after cells were seeded. After incubation of the tested sample with cells for 15 hours, two microliters of Hoechst dye (0.03 ng/ml in PBS) was added. Two hours later, cells that were stained with Hoechst dye were examined under fluorescence microscope. […] The percentage of apoptotic cells was calculated by the following equation:
The DNA condensation, DNA fragmentation and peripheral crescents of the nuclei are characteristics of a cell under apoptosis.

[8] = tested on: LNCaP (prostate cancer) cells; experiment: Cell death (apoptosis) assay, LNCaP cells; assay type: cell-based, human; details: for induced apoptosis: 4 hours; for apoptotic activity relative to fetuin prepared by other methods, later conservative estimate: conservatively estimated
Experimental: […] The free Zinc Acetate and Barium Acetate were removed by repetitive concentration. Fetuin was tested in LNCaP and HL-60 cells. […] Fetuin (in 10 μl PBS) at concentration of 100 ng/ml was added 3-4 hours after the cells were seeded.

Hep G2 (Human hepatoma) = experiment: Apoptosis assay, Hep G2 cells
[9] = tested on: CCD 39 Lu (normal lung fibroblast); experiment: Apoptosis assay, CCD 39 Lu cells; assay type: cell-based, human
PC-3 (prostate cancer) = experiment: Apoptosis assay, PC-3 cells; assay type: cell-based; details: 50 μg/ml
[10] = tested on: MCF-7 (breast cancer) cells; experiment: Apoptosis assay, MCF-7 cells; assay type: cell-based
Colo 205 (colon cancer) = experiment: Apoptosis assay, Colo 205 cells; assay type: cell-based; details: 50 μg/ml
Experimental: The tested sample (10 μl) was added 3-4 hours after cells were seeded. After incubation of the tested sample with cells for 15 hours, two microliters of Hoechst dye (0.03 ng/ml in PBS) was added. Two hours later, cells that were stained with Hoechst dye were examined under fluorescence microscope. […] The percentage of apoptotic cells was calculated by the following equation:

[11] = 100 ng/ml in PBS, 15 hours, Hoechst dye

In the case of “fetal fetuin: Zinc-charged fetal fetuin (10 mg/ml) injected intraperitoneally into mice”, the “mice that survived more than 58 days” value ([1]; 100 mg/Kg intraperitoneally for 10 days, untreated 100% dead after 24 days) is reported as 80% and the “increased life span (ILS)” value ([1]; leukemia-bearing mice treated with fetal fetuin) is reported as 141%.

For “zinc charged alpha 1-acid glycoprotein: alpha 1-acid glycoprotein from adult human serum, EDTA treated and charged with zinc acetate”, the “apoptotic activity, panel of cell lines (in words)” value (“apoptotic activity, panel” for short) [2] was “no activity was present; also recorded: no effect was seen”, the “apoptotic activity, panel” value [3] was “apoptotic activity was present” and the “apoptotic activity, panel” value [4] was “apoptotic activity was present”. The “apoptotic activity, panel” value (HL-60 (leukemia) cells) was “apoptotic activity was present”, the “concentration at which apoptotic activity was induced (apoptotic threshold)” value (cancer cell lines) was 0.75 µM and the “cell death (in words)” value ([5]; 5 μM, six hours) was “did not cause cell death”. For the same molecule, the “apoptotic activity, panel” value [5] was “no activity was present”, the “apoptotic activity, panel” value [6] was “no activity was present; also recorded: no effect was seen” and the apoptosis ([7]; 5 μM, 4 hours) was 100%. The “apoptotic activity / morphology (in words)” value ([7]; 5 μM, 4 hours) was “resulted in the condensation and fragmentation of DNA”, the “apoptotic activity, panel” value [7] was “apoptotic activity was present” and the “apoptotic activity, panel” value [8] was “apoptotic activity was present”. The “apoptotic activity, panel” value (Hep G2 (Human hepatoma)) was “apoptotic activity was present” and the cell death (Hep G2 (Human hepatoma); 5 μM, 4 hours) was 90%.

In the case of “zinc charged alpha 1-antitrypsin: alpha 1-antitrypsin (Sigma), EDTA treated and charged with zinc acetate”, the “apoptotic activity, panel” value [3] is reported as “induced apoptosis”, the “apoptotic activity, panel” value [4] is reported as “induced apoptosis” and the “apoptotic activity, panel” value (HL-60 (leukemia) cells) is reported as “induced apoptosis”. The “apoptotic activity, panel” value [5] was “no effect was seen”, the “apoptotic activity, panel” value [9] was “no effect was seen” and the “apoptotic activity, panel” value [6] was “no effect was seen”. The “apoptotic activity / morphology (in words)” value ([7]; 5 μM, 4 hours) was “caused cell shrinkage and membrane blebbing”, the “apoptotic activity, panel” value [7] was “induced apoptosis” and the “apoptotic activity, panel” value [8] was “induced apoptosis”.

B1: fetuin: bovine fetuin from fetal bovine serum by the modified Spiro method with zinc acetate (Section 4A) (protein, UniProt P12763 19-359, looked up)
Alpha-2-HS-glycoprotein: IPLDPVAGYKEPACDDPDTEQAALAAVDYINKHLPRGYKHTLNQIDSVKVWPRRPTGEVYDIEIDTLETTCHVLDPTPLANCSVRQQTQHAVEGDCDIHVLKQDGQFSVLFTKCDSSPDSAEDVRKLCPDCPLLAPLNDSRVVHAVEVALATFNAESNGSYLQLVEISRAQFVPLPVSVSVEFAVAATDCIAKEVVDPTKCNLLAEKQYGFCKGSVIQKALGGEDVRVTCTLFQTQPVIPQPQPDGAEAEAPSAVPDAAGPTPSAAGPPVASVVVGPSVVAVPLPLHRAHYDLRHTFSGVASVESSSGEAFHVGKTPIVGQPSIPGGPVRLCPGRIRYFKI
modifications: zinc
For B1, the “induction of apoptosis (in words)” value (PC-3 (prostate cancer)) was “strongly induced apoptosis”, the “induction of apoptosis (in words)” value ([4]; 50 μg/ml) was “strongly induced apoptosis” and the “apoptosis, nuclear morphology (in words)” value (HL-60 (leukemia) cells; [11]) was “showed the characteristics of apoptosis”. For the same molecule, the “induction of apoptosis (in words)” value (HL-60 (leukemia) cells; 25 μg/ml) was “highly induced apoptosis”, the “induction of apoptosis (in words)” value (HL-60 (leukemia) cells; 50 μg/ml) was “strongly induced apoptosis” and the “induction of apoptosis (in words)” value ([9]; 25 μg/ml, 15 hours) was “inactive in inducing apoptosis”. For the same molecule, the “induction of apoptosis (in words)” value ([9]; 50 μg/ml) was “is not affected”, the “induction of apoptosis (in words)” value ([10]; 25 μg/ml) was “highly induced apoptosis” and the “induction of apoptosis (in words)” value ([10]; 50 μg/ml) was “strongly induced apoptosis”. For the same molecule, the “induction of apoptosis (in words)” value (Colo 205 (colon cancer)) was “strongly induced apoptosis”, the “apoptosis, nuclear morphology (in words)” value [8, 11] was “showed the characteristics of apoptosis” and the “induction of apoptosis (in words)” value ([8]; 25 μg/ml) was “highly induced apoptosis”. The induced apoptosis ([8]; 25 μg/ml) was “up to 90%”, the “induction of apoptosis (in words)” value ([8]; 50 μg/ml) was “strongly induced apoptosis” and the induced apoptosis ([8]; approximately 50 μM) was “up to 90%”. For the same molecule, the “apoptotic activity relative to fetuin prepared by other methods, later conservative estimate” value ([8]; listed as Fetuin as prepared in Section 4A) was “approximately 100 times”, the “apoptotic activity relative to fetuin prepared by other methods, later conservative estimate” value ([8]; listed as fetuin as prepared in Section 4A) was “more than one hundred times greater” and the “apoptotic activity relative to fetuin prepared by other methods, initial estimate” value ([8]; initially estimated) was “more than fifty thousand folds higher; also recorded: more than fifty thousand times higher”.

B2: zinc charged alpha 2-HS glycoprotein: alpha 2-HS glycoprotein (Sigma), EDTA treated and charged with zinc acetate (protein, UniProt P02765 19-300; P02765 341-367, looked up)
Alpha-2-HS-glycoprotein chain … 1: APHGPGLIYRQPNCDDPETEEAALVAIDYINQNLPWGYKHTLNQIDEVKVWPQQPSGELFEIEIDTLETTCHVLDPTPVARCSVRQLKEHAVEGDCDFQLLKLDGKFSVVYAKCDSSPDSAEDVRKVCQDCPLLAPLNDTRVVHAAKAALAAFNAQNNGSNFQLEEISRAQLVPLPPSTYVEFTVSGTDCVAKEATEAAKCNLLAEKQYGFCKATLSEKLGGAEVAVTCMVFQTQPVSSQPQPEGANEAVPTPVVDPDAPPSPPLGAPGLPPAGSPPDSHVL
Alpha-2-HS-glycoprotein chain … 2: TVVQPSVGAAAGPVVPPCPGRIRHFKV
modifications: zinc charged
notes: alpha 2-HS glycoprotein (Sigma), EDTA treated and charged with zinc acetate
In the case of B2, the “apoptotic activity, panel” value [3] is reported as “induced apoptosis”, the “apoptotic activity, panel” value [4] is reported as “induced apoptosis” and the “apoptotic activity, panel” value (HL-60 (leukemia) cells) is reported as “induced apoptosis”. The “apoptotic activity / morphology (in words)” value ([7]; 5 μM, 4 hours) was “caused cell shrinkage and membrane blebbing”, the “apoptotic activity, panel” value [7] was “induced apoptosis” and the “apoptotic activity, panel” value [8] was “induced apoptosis”. The “apoptotic activity, panel” value (Hep G2 (Human hepatoma)) was “induced apoptosis”.
